Assay results from patent US20230233583A1, “USE OF PHYTOCANNABINOIDS FOR TREATING MULTIPLE MYELOMA” (priority 2020, published 2023).

Key:
[1] = test system: MM cell lines SKO, U266 and RPMI; experiment: Alkaline Comet assay; format: cell-based, human; settings: 48 hrs, CBG, CBN, CBDV 25 μM, CBC 75 μM
Experimental: Damage to cellular DNA of the cell lines SKO (upper images in each of FIGS. 21-24), U266 (middle images in each of FIGS. 21-24) and RPMI (lower images in each of FIGS. 21-24) due to exposure to CBG (25 μM; FIG. 21), CBC (75 μM; FIG. 22), CBN (25 μM; FIG. 23) and CBDV (25 μM; FIG. 24) were assessed using the Comet assay.
Alkaline Comet Assay: U266, SKO and RPMI myeloma cell lines were plated in 6-well plates (4×10^4 cell/well) one day before treatment exposure. Semi-confluent cultures were exposed for 48 hrs with 25 μM of CBG, CBN or CBDV or 75 μM of CBC. Controls, treated with vehicle, were included in all series. The Comet assay was performed under alkaline conditions following the ABCAM™ protocol. Briefly, after exposure to the phytocannabinoid, the cells were incubated for 48 hrs in Roswell Park Memorial Institute (RPMI) medium. Then the cells were resuspended in 1×PBS and added to 75 μL of molten (37° C.) 0.5% low-melting-point agarose gel to achieve a cell concentration of 1×10^5 cells/mL. The agarose was pipetted onto the Comet slides. Slides were stored in the dark at 4° C. for 10 min before adding pre-chilled lysis buffer for 45 min. The slides were immersed in freshly prepared alkaline solution (0.25 M NaOH containing […] EDTA, pH 12.6) for 30 min at room temperature. Slides were then removed and washed twice with alkaline solution for 5 min. Gel electrophoresis was performed at 1 V/cm for 30 min (running amperage 3-5 mA with the distance between the two electrodes of 25 cm). The Comet slides were washed with 70% ethanol for 5 min and air-dried for one hour at room temperature. 100 μL of diluted SYBR™ Green solution was placed onto each dried agarose circle. The slides were then read with a fluorescence microscope (LEIKA).
Phytocannabinoids induce necrotic cell death in MM cell lines: To evaluate the cytotoxic mechanism induced by the phytocannabinoids, MM cell lines were treated daily with a cytotoxic dose for each phytocannabinoid (CBG: 25 μM; CBC 75 μM; CBN 25 μM; CBDV 25 μM) for 48 hours and then Annexin-V/PI cell positivity was evaluated by FACS analysis. The results evidenced that all of the phytocannabinoids induced necrotic cell death but had different efficacies (FIGS. 5-16). To confirm the necrotic cell death mechanism, MM cell lines were treated as above and DNA damage was evaluated by H2AX (a marker to examine the DNA damage produced and the subsequent repair of the DNA lesion) Western blot analysis and Comet assay (permits the analysis of DNA damage in single cell preparations). The result confirmed the DNA damage induced by the phytocannabinoid analysed. […]

[2] = test system: MM cell lines U266, SKO and RPMI; experiment: Annexin-V/PI staining, FACS analysis; format: cell-based, human; settings: 48 hours, daily, CBG, CBN, CBDV 25 μM, CBC 75 μM
Experimental: Cell lines were treated for 48 hours with CBG (25 μM), CBN (25 μM), CBDV (25 μM) or CBC (75 μM) and the percentage of Annexin-V/PI positive cells were determined by FACS analysis. Values in overlays on each plot: upper left=necrotic cells; upper right=late death cells (both apoptotic and necrotic); lower left=live cells; and lower right=apoptotic cells. Data for each phytocannabinoid (lower plots in each Figure) expressed as percentage of PI positive cells with respect to vehicle treated cells (upper plots in each Figure).
Apoptosis assays and PI staining: Cell death was evaluated using the Annexin V-FITC Apoptosis detection Kit (eBioscience) followed by biparametric fluorescence-activated cell sorting (FACS) analysis. Cells, at a density of 4×10^4 cells/ml, were treated with CBG, CBC, CBN or CBDV for a maximum of 48 hours, with daily administration, and then incubated with Annexin V-FITC and propidium iodide (PI), following the protocol provided. The percentage of positive cells determined over 10,000 events was analysed on a FACScan cytofluorimeter using the CellQuest software.
Phytocannabinoids induce necrotic cell death in MM cell lines: To evaluate the cytotoxic mechanism induced by the phytocannabinoids, MM cell lines were treated daily with a cytotoxic dose for each phytocannabinoid (CBG: 25 μM; CBC 75 μM; CBN 25 μM; CBDV 25 μM) for 48 hours and then Annexin-V/PI cell positivity was evaluated by FACS analysis. The results evidenced that all of the phytocannabinoids induced necrotic cell death but had different efficacies (FIGS. 5-16). To confirm the necrotic cell death mechanism, MM cell lines were treated as above and DNA damage was evaluated by H2AX (a marker to examine the DNA damage produced and the subsequent repair of the DNA lesion) Western blot analysis and Comet assay (permits the analysis of DNA damage in single cell preparations). The result confirmed the DNA damage induced by the phytocannabinoid analysed. In particular, an increase of H2AX levels were observed by Western blot (FIGS. 17-20) and DNA damage by Comet assay that evidenced structures resembling comets in the treated cell lines (FIGS. 21-24).

RPMI = experiment: MTT cytotoxicity assay in RPMI MM cell line; settings: for IC50: Homo sapiens, 72 h, read-out: IC50 (μM) ± S.D.; for % VIABILITY ± S.D.: RPMI, daily, 72 hours, vs vehicle
Experimental: MTT cytotoxicity assay: MM cell lines (4×10^4 cells/ml) were seeded in 96-well plates, in a final volume of 100 μl/well. After 24 hours, CBG, CBC, CBN, CBDV alone and in combination or vehicle were added at different concentrations, for 72 hours. At least six replicates were used for each treatment. At the indicated time point, cell viability was assessed by adding 0.8 mg/ml of 3-[4,5-dimethylthiazol-2-yl]-2,5 diphenyl tetrazolium bromide (MTT) (Sigma-Aldrich) to the media. After 3 hours, the plates were centrifuged, the supernatant was removed, and the pellet was solubilized with 100 μl/well dimethyl sulfoxide (DMSO). The absorbance of the samples against a background control (medium alone) was measured at 570 nm using an ELISA reader microliter plate (BioTek™ Instruments, Winooski, Vt., USA).
Cells were treated with different doses of CBG, CBC, CBN and CBDV (up to 100 μM) and percentage of cell viability was evaluated by the MTT assay.
The cannabinoids were administered daily for 72 hours, as in previous experiments at the desired doses. Each combination was evaluated in six wells and in two separate experiments. MTT assay was used to analyze the cell cytotoxicity. The values in the tables are represented as % of cell viability compared to vehicle-treated cells.

HuOB cell line = experiment: cells; format: cell-based, human; settings: for IC50: Homo sapiens, 72 h, read-out: IC50 (μM) ± S.D.
Experimental: (§1) At least six replicates were used for each treatment.
(§2) Cell culture: The HuOB, an immortalized human osteoblast cell line derived from femoral head (INS-CI-1005, Inscreeex GmbH, Germany) was grown in HuOB Maintenance Medium (INS-ME-1006).
(§3) IC50 values, relative to daily administration, were obtained. The efficacy in reducing cell viability was generally highest for CBDV, followed by CBN, CBC and CBG.
(§4) Phytocannabinoid combinations in HuOB cell line viability: Before setting up the co-culture experiments with HuOB and MM cell lines, the less cytotoxic doses of phytocannabinoid combinations were evaluated in HuOB. […] The standard deviation of the data reported was <10%. […] Additionally, a triple combination with CBG, CBC and CBN at 12.5 μM for each phytocannabinoid, was performed (Table 9).

in vitro = format: cell-based, human; settings: human, HuOB, daily, 72 hours, vs vehicle, read-out: % VIABILITY ± S.D.; for viability at 72 h, 12.5 μM: single phytocannabinoid 12.5 μM; for viability at 72 h, 25 μM: single phytocannabinoid 25 μM
Experimental: as §1, §2, §3, §4

[3] = single phytocannabinoid 12.5 μM

Structure (SMILES) | DNA damage by Comet assay, in words [1] | necrotic cell death (Annexin-V/PI positive cells), in words [2] | IC50 (RPMI) | % VIABILITY ± S.D. (RPMI; [3]) | % VIABILITY ± S.D. (RPMI; single phytocannabinoid 25 μM) | IC50 (HuOB cell line) | viability at 72 h, 12.5 μM (in vitro) | viability at 72 h, 25 μM (in vitro) | cytotoxicity in HuOB cell line, in words (HuOB cell line; HuOB, 72 hours, daily administration)
CCCCCc1cc(O)c2c(c1)OC(C)(C)c1ccc(C)cc1-2 [CBN, 6,6,9-trimethyl-3-pentylbenzo[c]chromen-1-ol] | induce DNA damage | induce necrosis | 23.6 ± 0.9 µM | 102.6 ± 7.4% | 81.1 ± 7.7% | 29 ± 3.07 µM | 117 ± 7.7% | 81.7 ± 7.7% | 
C=C(C)[C@@H]1CCC(C)=C[C@H]1c1c(O)cc(CCC)cc1O [CBDV, 2-[(1R,6R)-3-methyl-6-prop-1-en-2-ylcyclohex-2-en-1-yl]-5-propylbenzene-1,3-diol] | induce DNA damage | induce necrosis | 21.7 ± 1.1 µM | 70.2 ± 5.3% | 40.2 ± 2.4% | 14.3 ± 1 µM | 72.1 ± 5.8% | 21.2 ± 1.1% | high cytotoxicity
CCCCCc1cc(O)c2c(c1)OC(C)(CCC=C(C)C)C=C2 (stereo not drawn) [CBC, 2-methyl-2-(4-methylpent-3-enyl)-7-pentylchromen-5-ol] | induce DNA damage | induce necrosis | 49.6 ± 2.1 µM | 104.9 ± 3.6% | 98.3 ± 5.1% | 42.4 ± 1.05 µM | 100 ± 8.3% | 99.8 ± 8.1% | 
CCCCCc1cc(O)c(C/C=C(\C)CCC=C(C)C)c(O)c1 [CBG, 2-[(2E)-3,7-dimethylocta-2,6-dienyl]-5-pentylbenzene-1,3-diol] | induce DNA damage | induce necrosis | 31.4 ± 1.9 µM | 99.3 ± 8.2% | 69.1 ± 5.5% | 44.8 ± 1.04 µM | 104 ± 8.2% | 96.4 ± 7.3% | 
